Reference: publication PMC3416963 (Biochemistry, 2012)

Molecular target: LigI (Sphingobium sp. SYK-6, UniProt O87170)
Assay: spectrophotometric PDC hydrolysis at […] nm
Format: biochemical

Sequence of LigI (O87170 2-293): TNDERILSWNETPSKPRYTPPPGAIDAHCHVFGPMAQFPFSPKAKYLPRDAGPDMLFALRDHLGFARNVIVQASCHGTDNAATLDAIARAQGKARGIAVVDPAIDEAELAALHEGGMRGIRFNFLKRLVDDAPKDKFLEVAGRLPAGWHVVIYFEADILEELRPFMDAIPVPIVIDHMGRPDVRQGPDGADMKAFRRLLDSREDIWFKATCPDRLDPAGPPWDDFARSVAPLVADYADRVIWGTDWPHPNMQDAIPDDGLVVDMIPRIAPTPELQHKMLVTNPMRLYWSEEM

Ki [µM] | Structure (SMILES)
40 ± 3 | O=C(O)c1cc(O)cc(C(=O)O)c1 [compound 5, 5-hydroxyisophthalic acid]
75 ± 2 | O=C(O)c1ccnc(C(=O)O)c1 [compound 2, pyridine-2,4-dicarboxylic acid]
